From the NIST ThermoML archive (doi:10.1021/je3007666)

Experiment: relative permittivity at zero frequency (dimensionless); xn = mol fraction of the nth substance listed
Conditions: 100 kPa, Liquid, Dielectrometer

CC(C)CO [2-methyl-1-propanol] + CCCCO
relative permittivity at zero frequency
Conditions | 288.15 K | 293.15 K | 298.15 K | 303.15 K | 308.15 K
x1 = 0.0505 | 19.03 | 18.3 | 17.59 | 16.92 | 16.26
x1 = 0.1011 | 19.05 | 18.31 | 17.61 | 16.93 | 16.27
x1 = 0.1496 | 19.06 | 18.33 | 17.62 | 16.94 | 16.28
x1 = 0.2001 | 19.08 | 18.34 | 17.63 | 16.95 | 16.29
x1 = 0.2488 | 19.1 | 18.36 | 17.65 | 16.97 | 16.31
x1 = 0.3011 | 19.12 | 18.38 | 17.66 | 16.98 | 16.32
x1 = 0.3497 | 19.14 | 18.4 | 17.68 | 16.99 | 16.33
x1 = 0.399 | 19.16 | 18.41 | 17.7 | 17.01 | 16.34
x1 = 0.4511 | 19.18 | 18.43 | 17.71 | 17.02 | 16.36
x1 = 0.5021 | 19.21 | 18.44 | 17.73 | 17.04 | 16.37
x1 = 0.5489 | 19.23 | 18.46 | 17.75 | 17.06 | 16.39
x1 = 0.6004 | 19.26 | 18.5 | 17.77 | 17.07 | 16.4
x1 = 0.6488 | 19.28 | 18.52 | 17.79 | 17.09 | 16.42
x1 = 0.6975 | 19.31 | 18.55 | 17.81 | 17.11 | 16.43
x1 = 0.751 | 19.34 | 18.57 | 17.83 | 17.13 | 16.45
x1 = 0.8004 | 19.37 | 18.6 | 17.86 | 17.15 | 16.46
x1 = 0.848 | 19.4 | 18.62 | 17.88 | 17.17 | 16.48
x1 = 0.8995 | 19.43 | 18.65 | 17.9 | 17.19 | 16.5
x1 = 0.9506 | 19.47 | 18.68 | 17.93 | 17.21 | 16.52
x1 = 1 | 19.51 | 18.71 | 17.96 | 17.23 | 16.53

CCC(C)O (stereo not given) [butan-2-ol] + CCCCO
relative permittivity at zero frequency
Conditions | 288.15 K | 293.15 K | 298.15 K | 303.15 K | 308.15 K
x1 = 0.0501 | 18.97 | 18.24 | 17.54 | 16.86 | 16.21
x1 = 0.0987 | 18.93 | 18.2 | 17.49 | 16.81 | 16.16
x1 = 0.1506 | 18.89 | 18.15 | 17.44 | 16.76 | 16.1
x1 = 0.1998 | 18.86 | 18.11 | 17.4 | 16.71 | 16.05
x1 = 0.2503 | 18.82 | 18.07 | 17.35 | 16.65 | 15.99
x1 = 0.2986 | 18.79 | 18.03 | 17.3 | 16.6 | 15.93
x1 = 0.3512 | 18.75 | 17.99 | 17.25 | 16.54 | 15.87
x1 = 0.3977 | 18.72 | 17.95 | 17.2 | 16.49 | 15.81
x1 = 0.4497 | 18.69 | 17.91 | 17.16 | 16.43 | 15.74
x1 = 0.4998 | 18.67 | 17.87 | 17.11 | 16.37 | 15.68
x1 = 0.5501 | 18.64 | 17.83 | 17.06 | 16.32 | 15.61
x1 = 0.6011 | 18.61 | 17.79 | 17.01 | 16.26 | 15.54
x1 = 0.649 | 18.59 | 17.76 | 16.96 | 16.2 | 15.47
x1 = 0.7005 | 18.57 | 17.72 | 16.91 | 16.14 | 15.4
x1 = 0.7511 | 18.55 | 17.68 | 16.86 | 16.07 | 15.32
x1 = 0.7986 | 18.53 | 17.65 | 16.81 | 16.01 | 15.25
x1 = 0.8498 | 18.51 | 17.62 | 16.76 | 15.95 | 15.17
x1 = 0.9006 | 18.5 | 17.58 | 16.71 | 15.88 | 15.09
x1 = 0.9487 | 18.48 | 17.55 | 16.66 | 15.82 | 15.01
x1 = 1 | 18.47 | 17.51 | 16.6 | 15.75 | 14.94

CC(C)(C)O [2-methylpropan-2-ol] + CCCCO
relative permittivity at zero frequency
Conditions | 288.15 K | 293.15 K | 298.15 K | 303.15 K | 308.15 K
x1 = 0.0501 | 18.96 | 18.21 | 17.49 | 16.81 | 16.12
x1 = 0.1012 | 18.93 | 18.16 | 17.42 | 16.68 | 15.97
x1 = 0.1503 | 18.85 | 18.04 | 17.29 | 16.53 | 15.81
x1 = 0.2003 | 18.75 | 17.92 | 17.15 | 16.37 | 15.62
x1 = 0.2497 | 18.61 | 17.79 | 16.99 | 16.19 | 15.44
x1 = 0.299 | 18.48 | 17.63 | 16.85 | 16.01 | 15.25
x1 = 0.349 | 18.36 | 17.5 | 16.69 | 15.83 | 15.07
x1 = 0.3993 | 18.25 | 17.35 | 16.53 | 15.65 | 14.87
x1 = 0.4505 | 18.13 | 17.22 | 16.38 | 15.45 | 14.63
x1 = 0.5001 | 18.01 | 17.06 | 16.19 | 15.25 | 14.42
x1 = 0.5511 | 17.89 | 16.91 | 16.01 | 15.02 | 14.15
x1 = 0.5998 | 17.74 | 16.73 | 15.82 | 14.79 | 13.89
x1 = 0.649 | 17.6 | 16.54 | 15.58 | 14.51 | 13.59
x1 = 0.7001 | 17.39 | 16.31 | 15.32 | 14.21 | 13.25
x1 = 0.7503 | 17.15 | 16.03 | 15 | 13.88 | 12.89
x1 = 0.8003 | 16.84 | 15.7 | 14.63 | 13.48 | 12.49
x1 = 0.8497 | 16.45 | 15.26 | 14.21 | 13.03 | 12.04
x1 = 0.899 | 15.96 | 14.77 | 13.71 | 12.53 | 11.55
x1 = 0.95 | 15.29 | 14.15 | 13.15 | 11.97 | 11
x1 = 1 | 14.49 | 13.38 | 12.49 | 11.34 | 10.4
